The source of these data is paper PMC5601486, “Identification of 4-phenylquinolin-2(1H)-one as a specific allosteric inhibitor of Akt” (Scientific Reports, 2017).

Assay [1] deals with BRK. The experiment in a line: KINOMEscan. As to conditions: 50000 nM.
Description: KINOMEscan™ selectivity screen
(§5) The assay was perfor med at DiscoveRx Corporation according the methods published previously5. Briefly, Kinase-tagged T7 phage strains were grown in parallel in an E. coli host derived from the BL21 strain. E. coli were grown to log-phase and infected with T7 phage from a frozen stock and incubated with shaking at 32°C until lysis (90-150 minutes). The kinases were produced in HEK-293 cells and subsequently tagged with DNA for qPCR detection. Streptavidin-coated magnetic beads were treated with biotinylated small molecule ligands to generate affinity resins for kinase
(§6) inhibitor or DMSO control was performed in polypropylene 384-well plates for 1 hr at room temperature. After wash with PBS buffer containing 0.05% Tween 20, the beads were incubated in elution buffer (PBS containing 0.05 % Tween 20 and 0.5 μM non-biotinylated affinity ligand) for 30 minutes at room temperature. The kinase concentration in the eluates was measured by qPCR.
In assay [2] the test system is RIOK1. Put plainly: KINOMEscan. The settings on record: 50000 nM.
Description: KINOMEscan™ selectivity screen
as §5, §6
Assay [3] concerns ACVR2B. Put plainly: KINOMEscan. As to conditions: 50000 nM.
Description: KINOMEscan™ selectivity screen
as §5, §6
In assay [4] the test system is TTK. The experiment in a line: KINOMEscan. The settings on record: 50000 nM.
Description: KINOMEscan™ selectivity screen
(§7) Briefly, Kinase-tagged T7 phage strains were grown in parallel in an E. coli host derived from the BL21 strain. E. coli were grown to log-phase and infected with T7 phage from a frozen stock and incubated with shaking at 32°C until lysis (90-150 minutes). The kinases were produced in HEK-293 cells and subsequently tagged with DNA for qPCR detection. Streptavidin-coated magnetic beads were treated with biotinylated small molecule ligands to generate affinity resins for kinase
as §6
For assay [5], the system named is CAMK2D. The experiment in a line: KINOMEscan. As to conditions: 50000 nM.
Description: KINOMEscan™ selectivity screen
as §7, §6
For assay [6], the system named is MLK2. Put plainly: KINOMEscan. As to conditions: 50000 nM.
Description: KINOMEscan™ selectivity screen
as §5, §6
Assay [7] concerns EGFR(S752-I759del). The experiment in a line: KINOMEscan. The settings on record: 50000 nM.
Description: KINOMEscan™ selectivity screen
as §5, §6
The subject of assay [8] is BMPR2. Put plainly: KINOMEscan. As to conditions: 50000 nM.
Description: KINOMEscan™ selectivity screen
as §5, §6
The test system of assay [9] is INSRR. The experiment in a line: KINOMEscan. As to conditions: 50000 nM.
Description: KINOMEscan™ selectivity screen
as §5, §6
Assay [10] deals with FoxO1 phosphorylation. The experiment in a line: Western blot of Akt downstream signaling. In kind it is cell-based, Mouse. The settings on record: Neuro 2A cells, dose-dependent. The protocol: (§1) Neuro 2A cells were seeded in 12-well plates in DMEM containing 5% FBS for 24 hr.
(§2) After overnight serum starvation (in 0% FBS DMEM), cells were incubated for 30 min at 37 °C with G7 or LY294002 or Torin 1 (Sigma Aldrich) at various concentrations, or DMSO control. IGF-1 was added to each well at a final concentration of 100 ng/mL. After 30-min incubation cells were washed with cold PBS and lysed with 50 µL lysis buffer containing 1% Triton X-100 and protease/phosphatase inhibitors (Cell Signaling Technology) or RIPA buffer (Santa Cruz Biotech). Samples were electrophoresed in 4–12% Bis-Tris gels (Life Technologies) at 150 V using MOPS SDS running buffer. Proteins were transferred electrophoretically to a PVDF or nitrocellulose membrane. For detection of cleaved […]
(§3) caspase 3 a Trans-Blot Turbo Transfer System (Bio-Rad, 25 V for 25 min) with PVDF membrane were used. […]
(§4) anti- GAPDH (14C10) antibody (#2118) (all antibodies were from Cell Signaling Technology unless indicated, 1:1000 dilution was used) at 4°C overnight, washed three times with TBS-T, then incubated with peroxidase-conjugated secondary antibody (Sigma-Aldrich) for 1 hr at room temperature. […] Band intensity was quantitated using Kodak 1D imaging analysis software. […]

For assay [11], the system named is GSK-3β phosphorylation. The experiment in a line: Western blot of Akt downstream signaling. The assay is classed as cell-based, Mouse. As to conditions: Neuro 2A cells, dose-dependent. The protocol: as §1, §2, §3, §4
A general note: In western blotting, separated proteins are transferred to a membrane and probed.

Take `Oc1cc(-c2ccccc2)c2ccccc2n1` [G7, 4-phenylquinolin-2(1H)-one]: the “Percent Control” value in [1] is reported as 96%; in assay [2], 95%; in assay [3], 100%; in [4], 24%; in [5], 79%; in [6], 100%. Moreover, the “Percent Control” value is listed as 85% in [7], 82% in assay [8] and 64% in [9]. Besides, the “phosphorylation of FoxO1” value in [10] was “decreased”. Moreover, in [11], the “phosphorylation of GSK-3β” value is listed as “decreased”.
